Here are results for 17 molecules from US20080261994A1, “CYCLOPROPANE COMPOUNDS AND PHARMACEUTICAL USE THEREOF” (Japan Tobacco Inc., priority 2003, published 2008).

Structures are written as SMILES.

What all share (assay type): biochemical
One assay concerns the target T1, aggrecanase-1 (Homo sapiens, UniProt O75173).
T1 sequence (O75173 213-837): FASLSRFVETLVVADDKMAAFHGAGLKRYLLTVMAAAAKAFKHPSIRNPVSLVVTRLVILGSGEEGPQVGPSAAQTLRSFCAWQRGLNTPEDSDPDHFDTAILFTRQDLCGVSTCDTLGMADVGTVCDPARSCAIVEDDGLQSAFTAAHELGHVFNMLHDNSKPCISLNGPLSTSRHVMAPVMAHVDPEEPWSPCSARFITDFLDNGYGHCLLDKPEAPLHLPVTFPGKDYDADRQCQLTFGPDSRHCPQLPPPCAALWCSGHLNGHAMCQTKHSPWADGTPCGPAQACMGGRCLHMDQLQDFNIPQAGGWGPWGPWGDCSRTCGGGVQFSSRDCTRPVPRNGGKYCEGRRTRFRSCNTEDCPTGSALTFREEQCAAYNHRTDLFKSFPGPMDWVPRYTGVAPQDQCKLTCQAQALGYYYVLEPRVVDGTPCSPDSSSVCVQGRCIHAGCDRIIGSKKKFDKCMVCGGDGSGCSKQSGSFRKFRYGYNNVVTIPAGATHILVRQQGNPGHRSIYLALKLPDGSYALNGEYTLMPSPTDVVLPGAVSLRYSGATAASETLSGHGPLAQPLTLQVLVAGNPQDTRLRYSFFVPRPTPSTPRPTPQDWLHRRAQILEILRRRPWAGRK
As to the kind of experiment: Aggrecanase-1 inhibitory action (Particle Assay, GAG release from aggrecan-containing polyacrylamide particles). The following applies: Experimental Example 1; read-out: IC50 AG1. In a few lines: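 Enzyme and compound incubated with aggrecan-containing polyacrylamide particles in Tris-HCl buffer at 37° C for 15 h. Released GAG in supernatant measured with 1,9-dimethylmethylene blue at 595 nm against chondroitin sulfate standard; % inhibition from enzyme-free and inhibitor-free wells, reported as TC50 (μM).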

In the next assay the target is T2, MMP-1 (Homo sapiens, UniProt P03956).
T2 sequence (P03956 100-469): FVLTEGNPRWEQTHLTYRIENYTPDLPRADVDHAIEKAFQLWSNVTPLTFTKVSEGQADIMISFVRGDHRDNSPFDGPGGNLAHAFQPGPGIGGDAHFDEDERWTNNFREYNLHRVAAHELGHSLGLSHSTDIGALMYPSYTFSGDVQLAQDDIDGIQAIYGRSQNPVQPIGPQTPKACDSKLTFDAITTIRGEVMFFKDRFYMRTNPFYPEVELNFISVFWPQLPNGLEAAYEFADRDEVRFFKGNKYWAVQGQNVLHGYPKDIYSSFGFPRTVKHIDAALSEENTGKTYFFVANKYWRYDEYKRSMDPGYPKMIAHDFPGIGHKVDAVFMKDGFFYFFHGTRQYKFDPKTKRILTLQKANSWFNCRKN
As to the kind of experiment: MMP-1 inhibitory action (Type I collagen Activity Measurement kit, FITC-labeled collagen type I). The following applies: Experimental Example 2; read-out: IC50 MMP1.

For a further assay, the target named is T3, Recombinant Human MMP-13 (Homo sapiens, UniProt P45452).
T3 construct: purchased R&D systems 511-MM
Nature of the assay: MMP-13 inhibitory activity (MMP-13 specific fluorescent substrate with quencher). The following applies: Experimental Example 3; read-out: IC50 MMP13. In a few lines: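 Recombinant human MMP-13 with test compound, reaction started with quenched fluorogenic peptide 7-MCA-Pro-CHA-Gly-NVal-His-Ala-DPA in Tris-HCl buffer, 1 h at 25 °C, stopped with acetic acid. Fluorescence at Ex 325/Em 405 nm; % inhibition versus enzyme-free and inhibitor-free wells, reported as IC50 (μM).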

The term IC50 denotes the concentration that gives 50% inhibition. Regarding `CC1C(c2ccccc2)C1(NS(=O)(=O)c1ccc(-c2ccc(Cl)cc2)s1)C(=O)O` (stereo not drawn) [Example 2-326], the IC50 was below 1000 nM at aggrecanase-1, at least 1000 nM on MMP-1 and below 1000 nM at Recombinant Human MMP-13.

`CCC1[C@@H](c2ccccc2)[C@@]1(NS(=O)(=O)c1ccc(-c2cc(C(F)(F)F)on2)s1)C(=O)O` (stereo partly drawn) [Example 2-327]: the values for the IC50 on aggrecanase-1, at MMP-1 and at Recombinant Human MMP-13 were below 1000 nM, below 1000 nM and below 100 nM, respectively.

For the molecule `CCC1[C@H](c2ccccc2)[C@]1(NS(=O)(=O)c1ccc(-c2cc(C(F)(F)F)on2)s1)C(=O)O` (stereo partly drawn) [Example 2-328], the concentration for half-maximal inhibition (IC50) on aggrecanase-1, on MMP-1 and at Recombinant Human MMP-13 was below 100 nM each time.

With `O=C(O)C1(NS(=O)(=O)c2ccc(-c3cc(C(F)(F)F)on3)s2)CC1(CN1CCCC1)c1ccccc1` (stereo not drawn) [Example 2-329], the IC50 is at least 1000 nM at aggrecanase-1, at least 10000 nM on MMP-1 and at least 1000 nM at Recombinant Human MMP-13.

In the case of `O=C(O)C1(NS(=O)(=O)c2ccc(-c3cc(C(F)(F)F)on3)s2)CC1(CN1CCCCC1)c1ccccc1` (stereo not drawn) [Example 2-330], the half-inhibitory concentration (IC50) on aggrecanase-1 is at least 1000 nM; at MMP-1, at least 10000 nM; on Recombinant Human MMP-13, at least 1000 nM.

On to `O=C(NC1CC1)OCC1(c2ccccc2)CC1(NS(=O)(=O)c1ccc(-c2cc(C(F)(F)F)on2)s1)C(=O)O` (stereo not drawn) [Example 2-331], for which the results for the IC50 at aggrecanase-1, at MMP-1 and on Recombinant Human MMP-13 were below 1000 nM, at least 1000 nM and below 1000 nM, respectively.

With `CN(CCO)C(=O)OCC1(c2ccccc2)CC1(NS(=O)(=O)c1ccc(-c2cc(C(F)(F)F)on2)s1)C(=O)O` (stereo not drawn) [Example 2-332], the IC50 at aggrecanase-1 was below 1000 nM; on MMP-1 it was at least 1000 nM; on Recombinant Human MMP-13 it was below 1000 nM.

Consider `O=C(NCCO)OCC1(c2ccccc2)CC1(NS(=O)(=O)c1ccc(-c2cc(C(F)(F)F)on2)s1)C(=O)O` (stereo not drawn) [Example 2-333], for which the half-inhibitory concentration (IC50) at aggrecanase-1 is below 1000 nM; on MMP-1 it was at least 1000 nM; at Recombinant Human MMP-13 it was below 1000 nM.

Take `CN1CCN(C(=O)OCC2(c3ccccc3)CC2(NS(=O)(=O)c2ccc(-c3cc(C(F)(F)F)on3)s2)C(=O)O)CC1` (stereo not drawn) [Example 2-334]: the results for the IC50 on aggrecanase-1, at MMP-1 and at Recombinant Human MMP-13 were below 1000 nM, at least 1000 nM and below 1000 nM, respectively.

For the molecule `NC(=O)OCC1(c2ccccc2)CC1(NS(=O)(=O)c1ccc(-c2cc(C(F)(F)F)on2)s1)C(=O)O` (stereo not drawn) [Example 2-335], the IC50 on aggrecanase-1 is below 1000 nM; on MMP-1 it was at least 1000 nM; at Recombinant Human MMP-13 it was below 1000 nM.

`COCCN(C)CC1(c2ccccc2)CC1(NS(=O)(=O)c1ccc(-c2cc(C(F)(F)F)on2)s1)C(=O)O` (stereo not drawn) [Example 2-336]: the IC50 is at least 1000 nM on aggrecanase-1, at least 10000 nM at MMP-1 and at least 1000 nM at Recombinant Human MMP-13.

On to `CN(C)CCSCC1(c2ccccc2)CC1(NS(=O)(=O)c1ccc(-c2ccc(Cl)cc2)s1)C(=O)O` (stereo not drawn) [Example 2-337], for which the IC50 is below 1000 nM at aggrecanase-1, at least 10000 nM on MMP-1 and below 1000 nM at Recombinant Human MMP-13.

For `CC1[C@H](c2ccccc2)[C@]1(NS(=O)(=O)c1ccc(-c2cc(C(F)(F)F)no2)s1)C(=O)O` (stereo partly drawn) [Example 2-338], the 50% inhibitory concentration (IC50) at aggrecanase-1 is below 100 nM; on MMP-1, at least 1000 nM; at Recombinant Human MMP-13 it was below 1000 nM.

Take `CC1(c2ccc(F)cc2)CC1(NS(=O)(=O)c1ccc(-c2cc(C(F)(F)F)on2)s1)C(=O)O` (stereo not drawn) [Example 2-339]: the results for the half-maximal inhibitory concentration (IC50) at aggrecanase-1, on MMP-1 and at Recombinant Human MMP-13 were below 100 nM, at least 1000 nM and below 1000 nM, respectively.

In the case of `CC1(c2ccc(F)cc2)CC1(NS(=O)(=O)c1ccc(-c2cc(C(F)(F)F)on2)s1)C(=O)O` (stereo not drawn) [Example 2-340], the half-inhibitory concentration (IC50) was below 1000 nM on aggrecanase-1, at least 10000 nM on MMP-1 and at least 1000 nM on Recombinant Human MMP-13.

Regarding `O=C(O)C1(NS(=O)(=O)c2ccc(-c3ccc(Cl)cc3)s2)CC1(CN1CCOCC1)c1ccccc1` (stereo not drawn) [Example 2-341], the IC50 on aggrecanase-1 was below 100 nM; at MMP-1 it was at least 10000 nM; at Recombinant Human MMP-13 it was at least 1000 nM.

For the molecule `CN1CCN(CC2(c3ccccc3)CC2(NS(=O)(=O)c2ccc(-c3cc(C(F)(F)F)on3)s2)C(=O)O)CC1` (stereo not drawn) [Example 2-342], the IC50 was below 1000 nM on aggrecanase-1, at least 1000 nM on MMP-1 and at least 1000 nM on Recombinant Human MMP-13.
